Experimental findings from US9469631B2 (Boehringer Ingelheim International GmbH, priority 2012, dated 2016) are described below.

What is called EC50 is the midpoint of the concentration-response curve. Low readings indicate greater potency, high ones weaker potency.

In the experiment the target is human GPR119 (Homo sapiens (Human), UniProt Q8TDV5). As to the kind of experiment: AlphaScreen cAMP assay in MIN6 cells stably transfected with human GPR119. The format is cell-based. The note with it: Min-6/hGPR119 cells, 45 min incubation at room temperature. The procedure: The compounds of formula I according to the invention modulate the activity of the G-protein-coupled receptor GPR119. The effect of the compounds on the activation of GPR119 and on the stimulation of intracellular cAMP concentration is determined using the AlphaScreen cAMP Assay Kit (Cat. No. #6760625R) made by PerkinElmer.
human GPR119, sequence (Q8TDV5 whole entry): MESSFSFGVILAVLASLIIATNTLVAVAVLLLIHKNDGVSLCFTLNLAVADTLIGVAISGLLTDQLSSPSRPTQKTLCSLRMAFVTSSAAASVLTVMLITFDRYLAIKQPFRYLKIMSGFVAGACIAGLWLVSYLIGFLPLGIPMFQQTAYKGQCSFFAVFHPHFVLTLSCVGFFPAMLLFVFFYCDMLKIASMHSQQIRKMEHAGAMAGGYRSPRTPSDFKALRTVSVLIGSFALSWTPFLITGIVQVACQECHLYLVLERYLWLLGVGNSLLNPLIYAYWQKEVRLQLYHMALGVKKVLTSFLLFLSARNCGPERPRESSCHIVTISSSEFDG
MIN6 cells [Miyazaki J et al. Endocrinology. 1990 July; 127(1):126-32] are stably transfected with an expression vector for human GPR119 cDNA (Acc. No. NP_848566). Min-6/hGPR119 cells are cultured in DMEM, 10% FBS, 50 μM β-mercaptoethanol, 0.3 mg/mL Geniticin, 2 mM GlutaMAX at 37° C. 5% CO2. For the assay, the cells are seeded in Optiplates (white, 384-well, 160W-barcoded, TC, sterile with lid, Cat. No. #6007688 (Perkin Elmer); 10000 cells/well; 50 μl). The plates covered with lids are then incubated for 24 hours at 37° C./5% CO2. After the medium is aspirated from the wells completely, 10 μl of the test compound are added, the compounds are diluted using stimulating buffer (140 mM NaCl, 3.6 mM KCl, 0.5 mM NaH2PO4, 0.5 mM MgSO4, 1.5 mM CaCl2, 10 mM Hepes, 5 mM NaHCO3; pH 7.4. 0.5 mM IBMX and 0.1% BSA, the final DMSO concentration is 1%). After 45 minutes incubation at room temperature (approx. 20° C.), the cAMP concentrations are determined using the AlphaScreen cAMP Assay Kit (Cat. No. #6760625R from PerkinElmer).
A general note: Alpha assays give light when donor and acceptor beads are brought close together.
`CC(C)(C)OC(=O)N1CCC(N(C(=O)c2ccc(-n3cnnn3)cc2)C2CC2)CC1` [Example 22, 4-[Cyclopropyl-(4-tetrazol-1-yl-benzoyl)-amino]-piperidine-1-carboxylic acid tert-butyl ester] yielded an EC50 of 137 nM. Compound `CC(C)(C)OC(=O)N1CCC(N(C(=O)c2ccc(-c3ccnnc3)cc2)C2CC2)CC1` [Example 23, 4-[Cyclopropyl-(4-pyridazin-4-yl-benzoyl)-amino]-piperidine-1-carboxylic acid tert-butyl ester] showed an EC50 of 236 nM. The figure for `Cc1cc(C(=O)N(C2CC2)C2CCN(C(=O)OC(C)(C)C)CC2)ccc1-c1cnco1` [Example 24, 4-[Cyclopropyl-(3-methyl-4-oxazol-5-yl-benzoyl)-amino]-piperidine-1-carboxylic acid tert-butyl ester] is 81 nM; for `CC(C)(C)OC(=O)N1CCC(N(C(=O)c2ccc(-c3ncon3)cc2)C2CC2)CC1` [Example 25, 4-[Cyclopropyl-(4-[1,2,4]oxadiazol-3-yl-benzoyl)-amino]-piperidine-1-carboxylic acid tert-butyl ester] it is 238 nM. The figure for `Cc1nnnn1-c1ccc(C(=O)N(C2CC2)C2CCN(C(=O)OC(C)(C)C)CC2)cc1` [Example 26, 4-{Cyclopropyl-[4-(5-methyl-tetrazol-1-yl)-benzoyl]-amino}-piperidine-1-carboxylic acid tert-butyl ester] is 224 nM. The figure for `Cc1cncnc1-c1ccc(C(=O)N(C2CC2)C2CCN(C(=O)OC(C)(C)C)CC2)cc1` [Example 27, 4-{Cyclopropyl-[4-(5-methyl-pyrimidin-4-yl)-benzoyl]-amino}-piperidine-1-carboxylic acid tert-butyl ester] is 469 nM; for `CC(C)(C)OC(=O)N1CCC(N(C(=O)c2ccc(-c3cnco3)c(F)c2)C2CC2)CC1` [Example 28, 4-[Cyclopropyl-(3-fluoro-4-oxazol-5-yl-benzoyl)-amino]-piperidine-1-carboxylic acid tert-butyl ester] it is 8 nM; for `CC(C)(C)OC(=O)N1CCC(N(C(=O)c2ccc(-c3ccncc3C#N)cc2)C2CC2)CC1` [Example 29, 4-{[4-(3-Cyano-pyridin-4-yl)-benzoyl]-cyclopropyl-amino}-piperidine-1-carboxylic acid tert-butyl ester] it is 27 nM. The compound `CNC(=O)c1ccc(-c2ccc(C(=O)N(C3CC3)C3CCN(C(=O)OC(C)(C)C)CC3)cc2)nc1` [Example 30, 4-{Cyclopropyl-[4-(5-methylcarbamoyl-pyridin-2-yl)-benzoyl]-amino}-piperidine-1-carboxylic acid tert-butyl ester] had an EC50 of 171 nM.

`CC(C)OC(=O)N1CCC(N(C(=O)c2ccc(-c3ccncc3C#N)cc2)C2CC2)CC1` [Example 31, 4-{[4-(3-Cyano-pyridin-4-yl)-benzoyl]-cyclopropyl-amino}-piperidine-1-carboxylic acid isopropyl ester] came in with an EC50 of 49 nM. The figure for `CC1(OC(=O)N2CCC(N(C(=O)c3ccc(-c4ccncc4C#N)cc3)C3CC3)CC2)CC1` [Example 32, 4-{[4-(3-Cyano-pyridin-4-yl)-benzoyl]-cyclopropyl-amino}-piperidine-1-carboxylic acid 1-methyl-cyclopropyl ester] is 19 nM; for `CC(C)(C)OC(=O)N1CCC(N(C(=O)c2cc(F)c(-c3cnco3)c(F)c2)C2CC2)CC1` [Example 33, 4-[Cyclopropyl-(3,5-difluoro-4-oxazol-5-yl-benzoyl)-amino]-piperidine-1-carboxylic acid tert-butyl ester] it is 9 nM; for `CC(C)(C)OC(=O)N1CCC(N(C(=O)c2ccc(-c3ccncc3C#N)c(F)c2)C2CC2)CC1` [Example 34, 4-{[4-(3-Cyano-pyridin-4-yl)-3-fluoro-benzoyl]-cyclopropyl-amino}-piperidine-1-carboxylic acid tert-butyl ester] it is 21 nM. The compound `CC(C)(C)OC(=O)N1CCC(N(C(=O)c2ccc(-c3cnco3)cc2F)C2CC2)CC1` [Example 35, 4-[Cyclopropyl-(2-fluoro-4-oxazol-5-yl-benzoyl)-amino]-piperidine-1-carboxylic acid tert-butyl ester] displayed an EC50 of 45 nM. For `CC(C)(C)OC(=O)N1CCC(N(C(=O)c2c(F)cc(-c3cnco3)cc2F)C2CC2)CC1` [Example 36, 4-[Cyclopropyl-(2,6-difluoro-4-oxazol-5-yl-benzoyl)-amino]-piperidine-1-carboxylic acid tert-butyl ester], the EC50 was 219 nM.

The compound `Cn1cncc1-c1ccc(C(=O)N(C2CC2)C2CCN(C(=O)OC(C)(C)C)CC2)cc1` [Example 42, 4-{Cyclopropyl-[4-(3-methyl-3H-imidazol-4-yl)-benzoyl]-amino}-piperidine-1-carboxylic acid tert-butyl ester] registered a concentration giving a half-maximal response (EC50) of 152 nM. The figure for `Cc1ncc(-c2ccc(C(=O)N(C3CC3)C3CCN(C(=O)OC(C)(C)C)CC3)cc2)o1` [Example 43, 4-{Cyclopropyl-[4-(2-methyl-oxazol-5-yl)-benzoyl]-amino}-piperidine-1-carboxylic acid tert-butyl ester] is 149 nM; for `CC(C)(C)OC(=O)N1CCC(N(C(=O)c2ccc(-c3cocn3)cc2)C2CC2)CC1` [Example 44, 4-[Cyclopropyl-(4-oxazol-4-yl-benzoyl)-amino]-piperidine-1-carboxylic acid tert-butyl ester] it is 298 nM; for `COC1CN(C(=O)OC(C)(C)C)CCC1N(C(=O)c1ccc(-c2cnco2)cc1)C1CC1` (stereo not drawn) [Example 45, 4-[Cyclopropyl-(4-oxazol-5-yl-benzoyl)-amino]-3-methoxy-piperidine-1-carboxylic acid tert-butyl ester] it is 15 nM.

`CC(C)(C)OC(=O)N1CCC(N(C(=O)c2ccc(-n3ccnc3)cc2)C2CC2)CC1` [Example 52, 4-[Cyclopropyl-(4-imidazol-1-yl-benzoyl)-amino]-piperidine-1-carboxylic acid tert-butyl ester] displayed an EC50 of 832 nM. Compared with the last compound, the EC50 is about 55-fold higher. The compound `CC(C)(C)OC(=O)N1CCC(N(C(=O)c2ccc(-c3cnco3)cc2)C2CC2)CC1` [Example 53, 4-[Cyclopropyl-(4-oxazol-5-yl-benzoyl)-amino]-piperidine-1-carboxylic acid tert-butyl ester] showed a 50% effective concentration (EC50) of 33 nM. For `CC(C)(C)OC(=O)N1CCC(N(C(=O)c2ccc(-c3ccc(C#N)cc3)cc2)C2CC2)CC1` [Example 54, 4-[(4′-Cyano-biphenyl-4-carbonyl)-cyclopropyl-amino]-piperidine-1-carboxylic acid tert-butyl ester], the response was half-maximal at 84 nM (EC50). Against the preceding compound, the EC50 is about 2.5-fold higher. Compound `Cc1cn(-c2ccc(C(=O)N(C3CC3)C3CCN(C(=O)OC(C)(C)C)CC3)cc2)c(C)n1` [Example 55, 4-{Cyclopropyl-[4-(2,4-dimethyl-imidazol-1-yl)-benzoyl]-amino}-piperidine-1-carboxylic acid tert-butyl ester] displayed an EC50 of 927 nM. Take `CC(C)(C)OC(=O)N1CCC(N(C(=O)c2ccc(-n3cnc(-c4ccccc4)c3)cc2)C2CC2)CC1` [Example 56, 4-{Cyclopropyl-[4-(4-phenyl-imidazol-1-yl)-benzoyl]-amino}-piperidine-1-carboxylic acid tert-butyl ester]: the EC50 was 104 nM. Consider `CC(C)(C)OC(=O)N1CCC(N(C(=O)c2ccc(-c3ccno3)cc2)C2CC2)CC1` [Example 57, 4-[Cyclopropyl-(4-isoxazol-5-yl-benzoyl)-amino]-piperidine-1-carboxylic acid tert-butyl ester], for which the EC50 turned out to be 99 nM. The figure for `CC(C)(C)OC(=O)N1CCC(N(C(=O)c2ccc(-c3cccs3)cc2)C2CC2)CC1` [Example 58, 4-[Cyclopropyl-(4-thiophen-2-yl-benzoyl)-amino]-piperidine-1-carboxylic acid tert-butyl ester] is 214 nM; for `CC(C)(C)OC(=O)N1CCC(N(C(=O)c2ccc(-c3nccs3)cc2)C2CC2)CC1` [Example 59, 4-[Cyclopropyl-(4-thiazol-2-yl-benzoyl)-amino]-piperidine-1-carboxylic acid tert-butyl ester] it is 332 nM. The figure for `Cc1noc(-c2ccc(C(=O)N(C3CC3)C3CCN(C(=O)OC(C)(C)C)CC3)cc2)n1` [Example 60, 4-{Cyclopropyl-[4-(3-methyl-[1,2,4]oxadiazol-5-yl)-benzoyl]-amino}-piperidine-1-carboxylic acid tert-butyl ester] is 347 nM; for `Cc1nnc(-c2ccc(C(=O)N(C3CC3)C3CCN(C(=O)OC(C)(C)C)CC3)cc2)o1` [Example 61, 4-{Cyclopropyl-[4-(5-methyl-[1,3,4]oxadiazol-2-yl)-benzoyl]-amino}-piperidine-1-carboxylic acid tert-butyl ester] it is 513 nM. The figure for `CC(C)(C)OC(=O)N1CCC(N(C(=O)c2ccc(-c3nnco3)cc2)C2CC2)CC1` [Example 62, 4-[Cyclopropyl-(4-[1,3,4]oxadiazol-2-yl-benzoyl)-amino]-piperidine-1-carboxylic acid tert-butyl ester] is 650 nM.
